From patent US20250186541A1, “DLL3 TARGETING PEPTIDES AND CONSTRUCTS THEREOF” (MARIANA ONCOLOGY INC., priority 2023, published 2025)
Numbered stars: 1 amine (or outer) side, 2 acyl side, 3 side chain; on linkers, the order of the positions; unused ones are H or OH. Bridge positions count the residues as written; N and C are the ends. Square brackets hold non-standard residues; d marks the D form. Peptide text beside a SMILES is read from it. * marks the point of attachment. Ala(piperidin-4-yl) = O=C([C@H](CC1CCN([*:3])CC1)N[*:1])[*:2]; DOTA = O=C(O)CN1CCN(CC(=O)O)CCN(CC(=O)*)CCN(CC(=O)O)CC1; Trp(7-Me) = Cc1cccc2c(C[C@H](N)C(=O)O)c[nH]c12; Phe(4-CH2NH2) = NCc1ccc(C[C@H](N)C(=O)O)cc1; 1Nal = N[C@@H](Cc1cccc2ccccc12)C(=O)O; 2Nal = N[C@@H](Cc1ccc2ccccc2c1)C(=O)O; NMetBuAla = CN[C@@H](CC(C)(C)C)C(=O)O; NMeChg = CN[C@H](C(=O)O)C1CCCCC1; tBuAla = CC(C)(C)C[C@H](N)C(=O)O; αMeD = C[C@](N)(CC(=O)O)C(=O)O; AllylGly = C=CC[C@H](N)C(=O)O; Chg = N[C@H](C(=O)O)C1CCCCC1; αMeP = C[C@@]1(C(=O)O)CCCN1; NMeS = CN[C@@H](CO)C(=O)O

The compounds below were run against T1, human DLL3 (Homo sapiens, UniProt Q9NYJ7) (assay: Affinity determination by Surface Plasmon Resonance (SPR), Biacore, 1:1 binding model). Conditions: biotinylated human DLL3 on streptavidin chip, 25° C.; NB = nonbinding.
T1 construct: biotin (biotinylated)
T1 sequence (Q9NYJ7 27-618): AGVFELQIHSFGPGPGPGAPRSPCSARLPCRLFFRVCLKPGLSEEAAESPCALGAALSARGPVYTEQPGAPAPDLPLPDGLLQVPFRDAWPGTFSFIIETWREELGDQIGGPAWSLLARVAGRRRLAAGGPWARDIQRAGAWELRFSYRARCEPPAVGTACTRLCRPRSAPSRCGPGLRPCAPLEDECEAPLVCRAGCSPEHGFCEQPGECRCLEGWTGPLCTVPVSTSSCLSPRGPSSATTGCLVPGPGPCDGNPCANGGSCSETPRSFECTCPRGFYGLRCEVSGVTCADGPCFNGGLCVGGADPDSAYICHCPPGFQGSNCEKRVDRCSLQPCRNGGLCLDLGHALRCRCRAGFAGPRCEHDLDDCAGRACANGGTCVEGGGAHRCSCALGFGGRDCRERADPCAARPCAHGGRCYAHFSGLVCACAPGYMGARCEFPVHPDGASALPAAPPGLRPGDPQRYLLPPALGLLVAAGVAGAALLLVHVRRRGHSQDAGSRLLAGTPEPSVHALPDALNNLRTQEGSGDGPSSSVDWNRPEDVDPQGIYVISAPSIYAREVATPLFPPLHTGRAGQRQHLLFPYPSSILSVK
Summary of the method: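 SPR with biotinylated human DLL3 captured on a streptavidin chip, with a reference surface subtracted. Samples were injected at several concentrations at 100 μL/min in phosphate buffer with 137 mM NaCl, 2.7 mM KCl, 0.05% P20 and 2% DMSO. Kinetic and affinity constants came from a 1:1 binding fit.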

SMILES | Kd [nM] | SPR KD (nM)
CC(=O)N[C@H](C(=O)N[C@@H](CO)C(=O)N[C@@H](CC(=O)O)C(=O)N[C@H]1CSSC[C@@H](C(=O)N2CCC[C@@]2(C)C(=O)N[C@@H](Cc2ccccc2)C(=O)N[C@@H](CC(=O)O)C(=O)N[C@H](CCCCNC(=O)CN2CCN(CC(=O)O)CCN(CC(=O)O)CCN(CC(=O)O)CC2)C(N)=O)NC(=O)[C@H](CC(N)=O)NC(=O)[C@H](Cc2c[nH]c3c(C)cccc23)NC(=O)[C@H](CC2CCNCC2)NC(=O)[C@H](CC(C)(C)C)N(C)C(=O)[C@H](Cc2cccc3ccccc23)NC1=O)C1CCCCC1 [compound 184, Ac-Chg-S-D-C(3)-(1Nal)-(NMe-Tba)-[3-(4-piperidinyl)-Ala]-(7Me-W)-N-C(3)-(aMe-P)-F -D-[D-Lys(DOTA)]-NH2] (Ac-[Chg]SDC[1Nal][NMetBuAla][Ala(piperidin-4-yl)][Trp(7-Me)]NC[αMeP]FD[dK](DOTA)-NH2; disulfide 4-10) | > 30 | –
CC(=O)N[C@H](C(=O)N[C@@H](CO)C(=O)N[C@@H](CC(=O)O)C(=O)N[C@H]1CSSC[C@@H](C(=O)N2CCC[C@@]2(C)C(=O)N[C@@H](Cc2ccccc2)C(=O)N[C@@H](CC(=O)O)C(=O)N[C@H](CCCCNC(=O)CN2CCN(CC(=O)O)CCN(CC(=O)O)CCN(CC(=O)O)CC2)C(N)=O)NC(=O)[C@H](CC(N)=O)NC(=O)[C@H](Cc2c[nH]c3c(C)cccc23)NC(=O)[C@H](CC2CCNCC2)NC(=O)[C@H](C2CCCCC2)N(C)C(=O)[C@H](Cc2cccc3ccccc23)NC1=O)C1CCCCC1 [compound 185, Ac-Chg-S-D-C(3)-(1Nal)-(NMe-Chg)-[3-(4-piperidinyl)-Ala]-(7Me-W)-N-C(3)-(aMe-P)-F -D-[D-Lys(DOTA)]-NH2] (Ac-[Chg]SDC[1Nal][NMeChg][Ala(piperidin-4-yl)][Trp(7-Me)]NC[αMeP]FD[dK](DOTA)-NH2; disulfide 4-10) | > 30 | –
CC(=O)N[C@H](C(=O)N[C@@H](CO)C(=O)N[C@@H](CC(=O)O)C(=O)N[C@H]1C/C=C/C[C@@H](C(=O)N2CCC[C@@]2(C)C(=O)N[C@@H](Cc2ccccc2)C(=O)N[C@@H](CC(=O)O)C(=O)N[C@H](CCCCNC(=O)CN2CCN(CC(=O)O)CCN(CC(=O)O)CCN(CC(=O)O)CC2)C(N)=O)NC(=O)[C@H](CC(N)=O)NC(=O)[C@H](Cc2ccc3ccccc3c2)NC(=O)[C@H](CC2CCNCC2)NC(=O)[C@H](CC(C)(C)C)N(C)C(=O)[C@H](Cc2cccc3ccccc23)NC1=O)C1CCCCC1 [compound 186, Ac-Chg-S-D-AllyG(4)-(1Nal)-(NMe-Tba)-[3-(4-piperidinyl)-Ala]-(2Nal)-N-AllyG(4)-(aMe-P)-F -D-[D-Lys(DOTA)]-NH2] (Ac-[Chg]SD[AllylGly][1Nal][NMetBuAla][Ala(piperidin-4-yl)][2Nal]N[AllylGly][αMeP]FD[dK](DOTA)-NH2; staple (E) 4-10) | > 30 | –
CC(=O)N[C@@H](CC1CCNCC1)C(=O)N[C@@H](CO)C(=O)N[C@@H](CC(=O)O)C(=O)N[C@H]1CC=CC[C@@H](C(=O)N2CCC[C@@]2(C)C(=O)N[C@@H](Cc2ccccc2)C(=O)N[C@@H](CC(=O)O)C(N)=O)NC(=O)[C@H](CC(N)=O)NC(=O)[C@H](Cc2ccc3ccccc3c2)NC(=O)[C@H](Cc2ccc(CNC(=O)CN3CCN(CC(=O)O)CCN(CC(=O)O)CCN(CC(=O)O)CC3)cc2)NC(=O)[C@H](CC(C)(C)C)N(C)C(=O)[C@H](Cc2cccc3ccccc23)NC1=O [compound 187, Ac-[3-(4-piperidinyl)-Ala]-S-D-AllyG(4)-(1Nal)-(NMe-Tba)-[PAF(DOTA)]-(2Nal)-N-AllyG(4)-(aMe-P)-F -D-CONH2] (Ac-[Ala(piperidin-4-yl)]SD[AllylGly][1Nal][NMetBuAla][Phe(4-CH2NH2)](DOTA)[2Nal]N[AllylGly][αMeP]FD-NH2; staple 4-10 (inferred)) | > 30 | –
CC(=O)N[C@@H](CO)C(=O)N[C@@H](CC(=O)O)C(=O)N[C@H]1C/C=C/C[C@@H](C(=O)N2CCC[C@@]2(C)C(=O)N[C@@H](Cc2ccccc2)C(=O)N[C@@H](CC(=O)O)C(=O)N[C@H](CCCCNC(=O)CN2CCN(CC(=O)O)CCN(CC(=O)O)CCN(CC(=O)O)CC2)C(N)=O)NC(=O)[C@H](CC(N)=O)NC(=O)[C@H](Cc2ccc3ccccc3c2)NC(=O)[C@H](CC2CCNCC2)NC(=O)[C@H](CC(C)(C)C)N(C)C(=O)[C@H](Cc2cccc3ccccc23)NC1=O [compound 189, Ac-S-D-AllyG(4)-(1Nal)-(NMe-Tba)-[3-(4-piperidinyl)-Ala]-(2Nal)-N-AllyG(4)-(aMe-P)-F -D-[D-Lys(DOTA)]-NH2] (Ac-SD[AllylGly][1Nal][NMetBuAla][Ala(piperidin-4-yl)][2Nal]N[AllylGly][αMeP]FD[dK](DOTA)-NH2; staple (E) 3-9) | > 30 | –
CC(=O)N[C@@H](CC1CCNCC1)C(=O)N(C)[C@@H](CO)C(=O)N[C@@H](CC(=O)O)C(=O)N[C@H]1C/C=C/C[C@@H](C(=O)N2CCC[C@@]2(C)C(=O)N[C@@H](Cc2ccccc2)C(=O)N[C@@H](CC(=O)O)C(N)=O)NC(=O)[C@H](CC(N)=O)NC(=O)[C@H](Cc2ccc3ccccc3c2)NC(=O)[C@H](Cc2ccc(CNC(=O)CN3CCN(CC(=O)O)CCN(CC(=O)O)CCN(CC(=O)O)CC3)cc2)NC(=O)[C@H](CC(C)(C)C)NC(=O)[C@H](Cc2cccc3ccccc23)NC1=O [compound 190, Ac-[3-(4-piperidinyl)-Ala]-(NMe-Ser)-D-AllyG(4)-(1Nal)-(t-Bu-Ala)-[PAF(DOTA)]-(2Nal)-N-AllyG(4)-(aMe-P)-F-D-CONH2] (Ac-[Ala(piperidin-4-yl)][NMeS]D[AllylGly][1Nal][tBuAla][Phe(4-CH2NH2)](DOTA)[2Nal]N[AllylGly][αMeP]FD-NH2; staple (E) 4-10) | 1.51 | –
CC(=O)N[C@@H](CC1CCNCC1)C(=O)N[C@@H](CO)C(=O)N[C@@](C)(CC(=O)O)C(=O)N[C@H]1C/C=C/C[C@@H](C(=O)N2CCC[C@@]2(C)C(=O)N[C@@H](Cc2ccccc2)C(=O)N[C@@H](CC(=O)O)C(N)=O)NC(=O)[C@H](CC(N)=O)NC(=O)[C@H](Cc2ccc3ccccc3c2)NC(=O)[C@H](Cc2ccc(CNC(=O)CN3CCN(CC(=O)O)CCN(CC(=O)O)CCN(CC(=O)O)CC3)cc2)NC(=O)[C@H](CC(C)(C)C)NC(=O)[C@H](Cc2cccc3ccccc23)NC1=O [compound 194, Ac-[3-(4-piperidinyl)-Ala]-S-(aMe-Asp)-AllyG(4)-(1Nal)-(t-Bu-Ala)-[PAF(DOTA)]-(2Nal)-N-AllyG(4)-(aMe-P)-F-D-CONH2] (Ac-[Ala(piperidin-4-yl)]S[αMeD][AllylGly][1Nal][tBuAla][Phe(4-CH2NH2)](DOTA)[2Nal]N[AllylGly][αMeP]FD-NH2; staple (E) 4-10) | 0.27 | –
C[C@@H](NC(=O)CN1CCN(CC(=O)O)CCN(CC(=O)O)CCN(CC(=O)O)CC1)C(=O)N[C@@H](CO)C(=O)N[C@@](C)(CC(=O)O)C(=O)N[C@H]1C/C=C/C[C@@H](C(=O)N2CCC[C@@]2(C)C(=O)N[C@@H](Cc2ccccc2)C(=O)N[C@@H](CC(=O)O)C(N)=O)NC(=O)[C@H](CC(N)=O)NC(=O)[C@H](Cc2ccc3ccccc3c2)NC(=O)[C@H](CC2CCNCC2)NC(=O)[C@H](CC(C)(C)C)NC(=O)[C@H](Cc2cccc3ccccc23)NC1=O [compound 197, DOTA-(D-Ala)-S-(aMe-Asp)-AllyG(4)-(1Nal)-(t-Bu-Ala)-[3-(4-piperidinyl)-Ala]-(2Nal)-N-AllyG(4)-(aMe-P)-F-D-CONH2] ({DOTA}-[dA]S[αMeD][AllylGly][1Nal][tBuAla][Ala(piperidin-4-yl)][2Nal]N[AllylGly][αMeP]FD-NH2; staple (E) 4-10) | 1.66 | –
CC(=O)N[C@@H](CC1CCNCC1)C(=O)N[C@@H](CO)C(=O)N[C@@H](CC(=O)O)C(=O)N[C@H]1C/C=C\C[C@@H](C(=O)N2CCC[C@@]2(C)C(=O)N[C@@H](Cc2ccccc2)C(=O)N[C@@H](CC(=O)O)C(N)=O)NC(=O)[C@H](CC(N)=O)NC(=O)[C@H](Cc2ccc3ccccc3c2)NC(=O)[C@H](Cc2ccc(CNC(=O)CN3CCN(CC(=O)O)CCN(CC(=O)O)CCN(CC(=O)O)CC3)cc2)NC(=O)[C@H](CC(C)(C)C)NC(=O)[C@H](Cc2cccc3ccccc23)NC1=O [compound 198, Ac-(D-Ala)-S-D-AllyG(4)-(1Nal)-(t-Bu-Ala)-[PAF(DOTA)]-(2Nal)-N-AllyG(4)-(aMe-P)-F-D-CONH2] (Ac-[Ala(piperidin-4-yl)]SD[AllylGly][1Nal][tBuAla][Phe(4-CH2NH2)](DOTA)[2Nal]N[AllylGly][αMeP]FD-NH2; staple (Z) 4-10) | – | heterogenous binding
CC(=O)N[C@@H](CC1CCNCC1)C(=O)N[C@@H](CO)C(=O)N[C@@H](CC(=O)O)C(=O)N[C@H]1C/C=C/C[C@@H](C(=O)N2CCC[C@@]2(C)C(=O)N[C@@H](Cc2ccccc2)C(=O)N[C@@H](CC(=O)O)C(N)=O)NC(=O)[C@H](CC(N)=O)NC(=O)[C@H](Cc2ccc3ccccc3c2)NC(=O)[C@H](Cc2ccc(CNC(=O)CN3CCN(CC(=O)O)CCN(CC(=O)O)CCN(CC(=O)O)CC3)cc2)NC(=O)[C@H](CC(C)(C)C)NC(=O)[C@H](Cc2cccc3ccccc23)NC1=O [compound 199, Ac-(D-Ala)-S-D-AllyG(4)-(1Nal)-(t-Bu-Ala)-[PAF(DOTA)]-(2Nal)-N-AllyG(4)-(aMe-P)-F-D-CONH2] (Ac-[Ala(piperidin-4-yl)]SD[AllylGly][1Nal][tBuAla][Phe(4-CH2NH2)](DOTA)[2Nal]N[AllylGly][αMeP]FD-NH2; staple (E) 4-10) | 0.21 | –
